Patent US7462486B2, “Methods of selecting T cell receptor V peptides for therapeutic use” (Oregon Health & Science University, priority 2000, dated 2008)
Entries after “also recorded” stand apart in the source; their conditions may differ.

Experiments:
Format in all cases: cell-based, human
[1] = test system: IL-10-secreting T cells (PBMC); test: IL-10 ELISPOT: frequency of TCR CDR2 peptide-specific cells in PBMC; details: for IL-10 response, MS patients versus HC: comparison in words; for frequency of IL-10-secreting T cells: 5 healthy controls; for frequency of IL-10-secreting T cells / frequency of responding cells (IL-10) in HC: single peptide; for frequency of responding cells (IL-10) in HC: healthy controls (HC); for frequency of responding cells (IL-10) in SPMS patient: MS186; for IL-10 response, SPMS patient versus HC: third SPMS patient (MS186), FIG. 4
Method: (§1) Antigens. Antigens used in the ELISPOT assay included ConA (2 μg/ml) and synthetic TCR peptides (25 μg/ml), including 116 known AV and BV gene products.
(§2) T cell frequency. To determine antigen-specific T cell frequency by ELISPOT, blood mononuclear cells were separated by Ficoll density gradient centrifugation, resuspended in 2% human AB serum, and aliquotted at 0.5 and 0.25 million cells in triplicate wells of nitrocellulose-coated microtiter plates (Resolution Technologies) pretreated with anti-IFN-γ (Mabtech, Sweden) or anti-IL-10 (PharMingen, San Diego, Calif.) mAb. Peptides, ConA, and medium were added and the plates incubated at 37 C for 24 hours (IFN-γ) or 48 hours (IL-10). Biotin-labeled secondary mAb for each cytokine was added, followed by streptavidin-alkaline phosphatase (Dako Corp., Carpinteria, Calif.) and substrate (BCIP/NBT phosphatase substrate, KPL, Gaithersburg, Md.) to develop optimal blue staining. Cytokine spots were quantified using an AID Immunospot Analyzer (AID, Cleveland, Ohio) equipped with a high resolution lens camera and analytical software designed for use with the AID system. Mean spots/well were calculated for each Ag, and net counts established after subtraction of background (no Ag). The frequency of Ag-specific spot-forming cells per million PBMC was determined from the average net response observed at two different cell concentrations. The mean net frequency+SEM was calculated for MS patients and HC, and differences compared by Student's t test for significance (p<0.05).
(§3) Preparation of ELISPOT plates. Four flat bottom 96 well plates with nitrocellulose membranes were coated overnight with 4 μg/ml mouse anti-IL-10 monoclonal antibodies (Pharmingen), and an additional 4 plates were coated with 10 μg/ml mouse anti-human INF((Mabtech). Two hours before addition of peptides, plates were washed 3× with sterile PBS, pH 7.2, and blocked for one hour at room temperature with 10% FBS in sterile PBS.
(§4) Blood processing. Twelve tubes of blood (approximately 120 ml) were collected from healthy controls and MS patients. The blood was immediately separated over a Ficoll gradient by centrifugation for 25 minutes at 2100 rpm at 25 degrees. Peripheral blood mononuclear cells (PBMC) so obtained were washed 3× with cold RPMI and resuspended to 10×10^6 cells per ml.
(§5) TCR peptide screens. Sterile stocks containing 1 mg/ml peptide were aliquotted among 4 sterile 96 well polypropylene blocks. Blocks were kept refrigerated for up to one month. Precoated and blocked ELIPSOT plates were washed with 1× with blocking solution and 100 μl of stimulation medium was added (5% fetal bovine serum/1% human AB serum/2 mM pyruvate, 2 mM glutamate, and 50 μg/ml penicillin/streptomycin). 10 μl of each peptide was added per well in triplicate wells. Negative control wells contained RPMI, positive control wells contained 2 μg/ml final concentration ConA. To each well human PBMC were added at a density of 2.5×10^5 cells per well in a total of 8 plates ([…]). Plates were incubated for 24 hours for INF-γ ELISPOTs and for 48 hours for IL-10 ELISPOTs.
(§6) Detection of cytokine producing cells. PBMC were removed from plates by washing with 3× with PBS and 3× with PBS/0.05% Tween, pH 7.6. To each well was added 100 μl of either anti-IFN-γ (1 μg/ml, Mabtech) or anti-IL-10 (2 μg/ml, Pharmingen) and incubated for 4 hours at room temperature in the dark. Plates were washed 4× with PBS/Tween, then 100 μl per well of alkaline-phosphatase-conjugated streptaviden (DAKO) (1:1000 of stock) was added and plates were incubated for 45 minutes at room temperature. Plates were washed 4× with PBS/Tween and 6× with PBS, 1 minute each. 100 μl of BCIP/NBT substrate (KPL laboratories) was added and the color reaction was allowed to develop for 3-7 minutes. Plates were rinsed 3× with distilled water and dried overnight at room temperature.
(§7) Analysis of ELISPOTS. […]

[2] = test system: IFN-γ-secreting T cells (PBMC); test: IFN-γ ELISPOT: frequency of TCR CDR2 peptide-specific cells in PBMC; details: for induction of IFN-γ-secreting T cells in HC: 5 HC; for frequency of IFN-γ-secreting cells: 5 healthy controls, mean, single peptide
Method: as §1, §2, §3, §4, §5, §6, §7

[3] = test system: CD4+CD25− T cells; test: Treg assay of antigen-specific CD4+CD25+ T cell lines; details: result in words

Q: ALGQGPQFIFQYYEEEERQRG [BV5S2] was tested. Which “IL-10 response, MS patients versus HC” value [1] did it give?
A: The value was “significantly lower; also recorded: significantly reduced frequencies”.

Q: What does the source list for DLGHGLRLIHYSYGVKDTNKG [BV12S2A2T]?
A: induction of IFN-γ-secreting T cells in HC [2]: induced IFN-γ-secreting T cells in all 5 HC; IFN-γ recognition by MS patients [2]: poorly recognized

Q: For DLGHGLRLIHYSYGVQDTNKG [BV12S2A1T], which “induction of IFN-γ-secreting T cells in HC” value [2] is on record?
A: Its value is “induced IFN-γ-secreting T cells in all 5 HC”.

Q: What about the “IFN-γ recognition by MS patients” value [2] of the same substance?
A: Its value is “poorly recognized”.

Q: Which results are given for KHGEAPVFLMILLKGGEQKGH [AV29S1A2T]?
A: frequency of IL-10-secreting T cells ([1]; mean): > 1000 cells/million PBMC; frequency of responding cells (IL-10) in MS patients ([1]; MS patients, mean): > 1500 cells/million; frequency of responding cells (IL-10) in HC [1]: about 1000 cells/million

Q: For KLEEELKFLVYFQNEELIQKA [BV10S1P], which “frequency of IFN-γ-secreting cells” value [2] is on record?
A: Its value is “minimal frequencies”.

Q: What about the “frequency of IL-10-secreting T cells” value ([1]; mean) of the same substance?
A: Its value is > 2000 cells/million PBMC.

Q: Which “frequency of IFN-γ-secreting cells” value [2] does the source give for NQNKEFMLLISFQNEQVLQET [BV19S1P] here?
A: Its value is 900 cells/million PBMC.

Q: With SLGQGPEFLIYFQGTGAADDS [BV6S1A1N1] as the substance, how does the “IL-10 response, MS patients versus HC” value [1] read?
A: The value was “significantly lower”.

Q: And the “IL-10 response, MS patients versus HC” value ([1]; listed as BV6S1A1N1T)?
A: Its value is “significantly reduced frequencies”.

Q: SSGEMIFLIYQGSYDQQNATE [ADV6S1A1N1] was tested. Which “induction of IFN-γ-secreting T cells in HC” value [2] did it give?
A: Its value is “induced IFN-γ-secreting T cells in all 5 HC”.

Q: What about the “IFN-γ recognition by MS patients” value [2] of the same substance?
A: Its value is “poorly recognized”.

Q: For Tetanus toxoid, which “Treg activity of T cell line specific for the antigen” value [3] is on record?
A: The value was “did not have any detectable Treg activity”.

Q: How did the “frequency of responding cells (IL-10) in SPMS patient” value [1] turn out when VLKNEFKFLISFQNENVFDET [BV25S1A1T] was run?
A: Its value is 450 cells/million.

Q: And the “frequency of responding cells (IL-10) in HC” value [1]?
A: Its value is 150 cells/million.

Q: What about the “IL-10 response, SPMS patient versus HC” value [1] of the same substance?
A: Its value is “responded better than HC”.

Q: For YPNQGLQLLLKYTSAATLVKG [AV1S2A1N1T], which “frequency of responding cells (IL-10) in SPMS patient” value [1] is on record?
A: Its value is 300 cells/million.

Q: And the “frequency of responding cells (IL-10) in two symptomatic RRMS patients” value ([1]; MS193 and MS74)?
A: Its value is > 1700 cells/million.

Q: And the “frequency of responding cells (IL-10) in HC” value [1]?
A: Its value is < 25 cells/million.

Q: And the “IL-10 response, SPMS patient versus HC” value [1]?
A: The value was “responded better than HC”.
